The supplement of paper PMC10307832

Experiments:
Test in all cases: relative viability (nuclei count vs DMSO), 5 days (fraction); higher = more cells survive
[1] = compound: CCN1CCN(c2ccc(Nc3cc(N(C)C(=O)Nc4c(Cl)c(OC)cc(OC)c4Cl)ncn3)cc2)CC1 [BGJ398] + CC(=O)Nc1cccc(-n2c(=O)n(C3CC3)c(=O)c3c(Nc4ccc(I)cc4F)n(C)c(=O)c(C)c32)c1 [Trametinib] (partner 0.02 µM)
Outline: (§1)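 After 5 days of treatment, lung cancer cells in 1536-well plates were fixed and stained in a single step (final 0.05% Triton X-100, 1% formaldehyde, 1 ug/ml Hoechst) and their nuclei counted on 4× images. Treatment had been applied by pin tool the day after seeding as one drug alone or as a fixed anchor-drug dose with five library-drug doses (not always all listed) in √10 steps. Relative viability is the nuclei count of treated wells divided by that of vehicle wells, and values are medians of duplicate plates.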

[2] = compound: C1=CC2=NC=CN=C2C=C1/C=C/3\C(=O)NC(=O)S3 + CS(=O)(=O)N1CCN(Cc2cc3nc(-c4cccc5[nH]ncc45)nc(N4CCOCC4)c3s2)CC1 [Pictilisib] (partner 1 µM)
Outline: as §1

[3] = compound: CCN1CCN(c2ccc(Nc3cc(N(C)C(=O)Nc4c(Cl)c(OC)cc(OC)c4Cl)ncn3)cc2)CC1 [BGJ398] + CC(C)C[C@H](NC(=O)[C@H](Cc1ccccc1)NC(=O)c1cnccn1)B(O)O [Bortezomib] (partner 0.002 µM)
Outline: as §1

[4] = compound: C1=CC2=NC=CN=C2C=C1/C=C/3\C(=O)NC(=O)S3 + C[C@@H](Oc1cc(-c2cnn(C3CCNCC3)c2)cnc1N)c1c(Cl)ccc(F)c1Cl [Crizotinib] (partner 1 µM)
Outline: as §1

UMC-11
relative viability ([1]; first compound 0.01 µM): 0.671 | relative viability ([1]; first compound 0.03162 µM): 0.749 | relative viability ([1]; first compound 0.1 µM): 0.808 | relative viability ([1]; first compound 0.3162 µM): 0.622 | relative viability ([1]; first compound 1 µM): 0.55 | relative viability ([2]; first compound 0.02 µM): 0.839 | relative viability ([2]; first compound 0.06325 µM): 0.914 | relative viability ([2]; first compound 0.2 µM): 0.882 | relative viability ([2]; first compound 0.6325 µM): 0.786 | relative viability ([2]; first compound 2 µM): 0.952 | relative viability ([3]; first compound 0.01 µM): 0.759 | relative viability ([3]; first compound 0.03162 µM): 0.632 | relative viability ([3]; first compound 0.1 µM): 0.706 | relative viability ([3]; first compound 0.3162 µM): 0.661 | relative viability ([3]; first compound 1 µM): 0.475 | relative viability ([4]; first compound 0.02 µM): 0.627 | relative viability ([4]; first compound 0.06325 µM): 0.572 | relative viability ([4]; first compound 0.2 µM): 0.557 | relative viability ([4]; first compound 0.6325 µM): 0.603 | relative viability ([4]; first compound 2 µM): 0.722
